Laboratory results published in patent US20090202660A1, “Agents and Methods for Osteogenic Oxysterols Inhibition of Oxidative Stress on Osteogenic Cellular Differentiation” (The Regents of the University of California, priority 2005, published 2009).

Columns and labels:
osteocalcin mRNA = assay: Northern blotting for osteocalcin mRNA in M2 cells; type: cell-based, mouse; conditions: for osteocalcin gene expression: M2 cells in osteogenic medium, up to 14 days; for osteocalcin expression, synergy with osteogenic oxysterols: BMP 50 ng/ml with 22S+20S (SS, 2.5 μM), eight days
Procedure: RNA isolation and Northern blot analysis—Following treatment of cells under appropriate experimental conditions, total RNA was isolated using the RNA isolation kit from Stratagene (La Jolla, Calif., U.S.A.). Total RNA ([…]) was run on a 1% agarose/formaldehyde gel and transferred to Duralon-UV membranes (Strategene, Calif., U.S.A.) and cross-linked with UV light. The membranes were hybridized overnight at 60 degree C. with ^32P-labeled mouse osteocalcin cDNA probe, mouse lipoprotein lipase (LPL), mouse adipocyte protein 2 (aP2) PCR-generated probes, human 28S or 18S rRNA probes obtained from Geneka Biotechnology (Montreal, Quebec, Canada) and Maxim Biotech (San Francisco, Calif., U.S.A.), respectively. The PCR products were generated using primer sets synthesized by Invitrogen (Carlsbad, Calif., U.S.A.) with the following specifications: mouse aP2 gene (accession no. M13261); sense (75-95) 5′-[…]-3′, antisense (362-383) 5′-[…]-3′, generating a PCR product of 309 base pairs. Mouse LPL (accession no. XM—134193); sense (1038-1058) 5′-[…]-3′, antisense (1816-1836) 5′-[…]-3′, generating a PCR product of 799 base pairs. […] Following hybridization, the blots were washed twice at room temperature with 2×SSC+0.1% SDS, and then twice at 60 degree C. with 0.5×SSC+0.1% SDS, and exposed to X-ray film. The extent of gene induction was determined by densitometry.
After 4 and 8 days, total RNA from duplicate samples was isolated and analyzed for osteocalcin (Osc) and 28S rRNA expression by Northern blotting as described. FIG. 3E is a radiogram of Northern blotting for osteocalcin mRNA in M2 cells exposed to a control or combination of oxysterols for 4 or 8 days. FIG. 3F is a bar graph depicting the relative demsometric units of osteocalcin mRNA in M2 cells exposed to a control or combination of oxysterols for 4 or 8 days. Data from densitometric analysis of the Northern blot is shown in (F) as the average of duplicate samples, normalized to 28S rRNA.
RNA Isolation and Northern Blot Analysis—Total RNA was isolated using the RNA isolation kit from Stratagene (La Jolla, Calif., USA). Northern blotting and analysis of osteocalcin mRNA and 18S rRNA expression was performed as previously described (23).

M2 cells = assay: Troglitazone-induced adipogenesis, oil Red O staining and adipocyte count; type: cell-based, mouse; conditions: troglitazone 10 μM, oxysterols 10 μM, 8-10 days
Procedure: (§1) Von Kossa and oil red O staining—Matrix mineralization in cell monolayers was detected by silver nitrate staining as previously described. Oil red O staining for detection of adipocytes was performed as previously described.
Test 1: M2 cells at 90% confluence were treated with vehicle (C), PPAR-γ activator, troglitazone 10 uM (Tro), alone or in combination with 10 μM oxysterols 20S-, 22R-, or 25S-hydroxycholesterol. After 8 days, adipocytes were identified by oil Red 0 staining and quantified by counting under a phase contrast microscope. FIG. 6A is a bar graph depicting the effect of oxysterols on reducing adipogenesis of MSC.
Test 2: (A) M2 cells at confluence were treated in RPMI containing 10% FBS with control vehicle or 10 μM troglitazone (Tro) in the absence or presence of 10 μM 20S or 22S oxysterols. After 10 days, adipocytes were visualized by oil Red O staining and quantified by light microscopy, shown in (B). […] (C) M2 cells were treated at confluence with 10 μM Tro, alone or in combination with 10 μM 20S oxysterol. After 10 days, total RNA was isolated and analyzed for lipoprotein lipase (LPL), adipocyte P2 gene (aP2) or 18S rRNA expression by Northern blotting as described (Ref). Data from densitometric analysis of the Northern blot is shown in (D) as the average of duplicate samples, normalized to 18S rRNA.

[1] = test system: M2-10B4 marrow stromal cells; assay: Colorimetric alkaline phosphatase (ALP) activity assay on whole cell extracts; conditions: for alkaline phosphatase activity (induction): M2 cells in osteogenic medium, oxysterols 0.5-10 μM, 3-4 days; for alkaline phosphatase activity: ligands used at 10 μM, control 18±2, ±SD; for Enzyme Activity (units/mg total cellular protein) ± SD: alkaline phosphatase, oxysterols 5 μM, 4 days, untreated 6 ± 3; for inhibition of oxysterol-induced alkaline phosphatase activity: M2 cells pretreated with inhibitor, then 22R+20S oxysterols, 3 days; for alkaline phosphatase activity, synergy with oxysterols: marrow stromal cells, BMP with oxysterols
Procedure: Alkaline phosphatase activity assay: Colorimetric alkaline phosphatase (ALP) activity assay on whole cell extracts was performed as previously described.
Test 1: M2 cells at confluence were treated with control vehicle (C), or 10 µM oxysterols, in an osteogenic medium consisting of RPMI 1640 to which 10% fetal bovine serum (FBS), 50 µg/ml ascorbate and 3 mM beta-glycerophosphate (□GP) were added. After 3 days of incubation, alkaline phosphatase (ALP) activity was determined in cell homogenates by a colorimetric assay.
M2 cells at confluence were treated in osteogenic medium with control vehicle (C) or a combination of 22R and 20S oxysterols, at the indicated concentrations. ALP activity was measured after 3 days as described above.
Test 2: M2 cells were grown in RPMI medium containing 10% fetal bovine serum (FBS). At confluence, the cells were treated in RPMI containing 5% FBS plus ascorbate at 50 μg/ml and β-glycerophosphate at 3 mM to induce osteoblastic differentiation. Adipogenic differentiation was induced by treating the cells in growth medium plus 10˜M troglitazone. A vehicle (C) or oxysterol treatment was applied to cells in a variety of doses (in μM): 20S-Hydroxycholesterol, 25-Hydroxycholesterol, 22R-Hydroxycholesterol; 22S-Hydroxycholesterol; 7-ketocholesterol. Cells were always treated at 90% confluence. After 4 days, alkaline phosphatase activity was determined in whole cell lysates and normalized to protein. Alternatively, MSC cultures were prepared and treated with oxysterols as described above. Cells were treated at 90% confluence with the combination of 22R-Hydroxycholesterol and 20S-Hydroxycholesterol, each at 5 μM, for 4 to 96 hours. The oxysterols where removed and fresh media without oxysterols was added for a total duration of 96 hours. Alkaline phosphatase activity was measured in whole cell extracts and normalized to protein.
Cells were treated with the oxysterols (5 μM) for 4 days after which they were collected and analyzed by colorimetric assay for alkaline phosphatase activity. Results from a representative experiment are shown as the average of quadruplicate determination ±SD.

marrow stromal cells = assay: Markers of osteogenic differentiation in marrow stromal cells (ALP, osteocalcin mRNA, mineral formation); type: cell-based, mouse; conditions: for osteogenic property (markers of osteoblastic differentiation): alone or in combination with originally described oxysterols
Procedure: Next, a combination of 22R and 20S oxysterols (RS, 2.5 μM each) were added in the presence or absence of SC as indicated. After 3 days, ALP activity was measured as described earlier. […] (B) M2 cells were treated as described in (A) and after 10 days matrix mineralization in cultures was quantified by a ^45Ca incorporation assay as described earlier. […] (C) M2 cells were pretreated with 20 μM SC for 4 hours, followed by the addition of RS in the presence or absence of SC as described above. After 8 days, total RNA was isolated and analyzed for osteocalcin (Osc) and […] expression by Northern blotting as previously described. Data from densitometric analysis of the Northern blot is shown in (D) as the average of duplicate samples, normalized to 18S rRNA. (E) M2 cells at confluence were pretreated for 2 hours with control vehicle (C), or PLA2 inhibitors ACA (25 μM) and AACOCF3 (AAC, 20 μM), in osteogenic medium. Next, a combination of 22R and 20S oxysterols (RS, 2.5 μM) was added in the presence or absence of the inhibitors as indicated. After 3 days, ALP activity was measured as previously described. […] (F) M2 cells were treated as described in (E). After 10 days, matrix mineralization in cultures was quantified using a ^45Ca incorporation assay as previously described. Results from a representative of three experiments are shown, reported as the mean of quadruplicate determinations±SD, normalized to protein concentration (p<0.01 for RS vs. RS+ACA and RS+AAC).
The purpose of the study was to identify other osteogenic and anti-adipogenic oxysterols based on the chemical structure of previously identified oxysterols. We tested the ability of such candidate oxysterol molecules to induce the formation of osteoblastic cells in cultures of marrow stromal cells, which are progenitors of osteoblastic cells that make bone. In order to assess osteogenic differentiation of cells, one or more markers of osteogenic differentiation were measured in untreated cells and cells treated with the test oxysterols. These markers included: alkaline phosphatase activity, osteocalcin mRNA expression and mineral formation in cultures of marrow stromal cells. Activation of either one or more than one marker by a single or combination oxysterols is indicative of their osteogenic property.

[2] = test system: M2-10B4 marrow stromal cells; assay: Matrix mineralization (45Ca incorporation assay, von Kossa staining); type: cell-based, mouse; conditions: for mineralization: M2 cells in osteogenic medium, 10-14 days; for inhibition of oxysterol-induced mineralization: M2 cells pretreated with inhibitor, then 22R+20S oxysterols, 10 days; for mineralization, synergy with oxysterols: marrow stromal cells, BMP with oxysterols
Procedure: as §1
^45Ca incorporation assay—Matrix mineralization in cell monolayers was quantified using the ^45Ca incorporation assay as previously described.
After 14 days, mineralization was identified by a von Kossa staining, which appears black. FIG. 3C is a depiction of von Kossa staining of M2 cells exposed to various conditions. […]

CC(C)CCC[C@@H](C)[C@H]1CC[C@H]2[C@@H]3CC=C4[C@@H](O)[C@@H](O)CC[C@]4(C)[C@H]3CC[C@]12C [4beta-hydroxycholesterol]
osteocalcin mRNA (osteocalcin mRNA; M2-10B4 cells treated for eight days, FIG. 20): moderate increase

CC(C)CCC[C@@H](C)[C@H]1CC[C@H]2[C@@H]3C(=O)C=C4C[C@@H](O)CC[C@]4(C)[C@H]3CC[C@]12C [7-ketocholesterol, reference compound]
inhibition of adipogenesis (M2 cells): unable to inhibit adipogenesis
alkaline phosphatase activity (induction) [1]: did not induce alkaline phosphatase activity

CC(C)CCC[C@@H](C)[C@H]1CC[C@H]2[C@@H]3[C@H](O)C=C4C[C@@H](O)CC[C@]4(C)[C@H]3CC[C@]12C [7alpha-hydroxycholesterol, reference compound]
osteogenic property (markers of osteoblastic differentiation) (marrow stromal cells): did not appear to affect any measures of osteoblastic differentiation

CC(C)CC[C@@H](O)[C@@H](C)[C@H]1CC[C@H]2[C@@H]3CC=C4C[C@@H](O)CC[C@]4(C)[C@H]3CC[C@]12C [22R-hydroxycholesterol]
inhibition of adipogenesis (M2 cells): inhibited adipogenesis
alkaline phosphatase activity (induction) [1]: induced alkaline phosphatase activity
alkaline phosphatase activity ([1]; M2 cells): 45±5 activity units/mg protein
mineralization [2]: unable to induce
osteocalcin gene expression (osteocalcin mRNA): unable to induce

CC(C)CC[C@H](O)[C@@H](C)[C@H]1CC[C@H]2[C@@H]3CC=C4C[C@@H](O)CC[C@]4(C)[C@H]3CC[C@]12C [22S-hydroxycholesterol]
inhibition of adipogenesis (M2 cells): inhibited adipogenesis
alkaline phosphatase activity (induction) [1]: induced alkaline phosphatase activity
mineralization [2]: unable to induce
osteocalcin gene expression (osteocalcin mRNA): unable to induce

CC(C)C(O)CC[C@@H](C)[C@H]1CC[C@H]2[C@@H]3CC=C4C[C@@H](O)CC[C@]4(C)[C@H]3CC[C@]12C (stereo partly shown) [24-hydroxycholesterol]
osteogenic property (markers of osteoblastic differentiation) (marrow stromal cells): osteoinductive
Enzyme Activity (units/mg total cellular protein) ± SD [1]: 250 ± 20 units/mg total cellular protein

C[C@H](CC[C@@H]1OC1(C)C)[C@H]1CC[C@H]2[C@@H]3CC=C4C[C@@H](O)CC[C@]4(C)[C@H]3CC[C@]12C [24S,25-epoxycholesterol]
osteogenic property (markers of osteoblastic differentiation) (marrow stromal cells): osteoinductive
Enzyme Activity (units/mg total cellular protein) ± SD [1]: 1,588 ± 19 units/mg total cellular protein

C[C@@H](CO)CCC[C@@H](C)[C@H]1CC[C@H]2[C@@H]3CC=C4C[C@@H](O)CC[C@]4(C)[C@H]3CC[C@]12C [26-hydroxycholesterol]
osteogenic property (markers of osteoblastic differentiation) (marrow stromal cells): osteoinductive
Enzyme Activity (units/mg total cellular protein) ± SD [1]: 655 ± 93 units/mg total cellular protein

CCCCC/C=C\C/C=C\C/C=C\C/C=C\CCCC(=O)C(F)(F)F [AACOCF3, reference compound]
inhibition of oxysterol-induced alkaline phosphatase activity [1]: inhibited
inhibition of oxysterol-induced mineralization [2]: inhibited

CCCCCc1ccc(/C=C/C(=O)Nc2ccccc2C(=O)O)cc1 [ACA, reference compound]
inhibition of oxysterol-induced alkaline phosphatase activity [1]: inhibited
inhibition of oxysterol-induced mineralization [2]: inhibited

CS(=O)(=O)Nc1ccc([N+](=O)[O-])cc1OC1CCCCC1 [NS-398, reference compound]
highest non-toxic dose (marrow stromal cells; M2 cells): 20 µM
inhibition of the osteogenic effects of oxysterol combinations (marrow stromal cells; SC-560 at 1-20 μM, NS-398 at 20 μM): negligible inhibitory effects

COc1cccc(-c2cc(=O)c3ccccc3o2)c1N [PD98059, reference compound]
inhibition of oxysterol-induced mineralization [2]: inhibited
inhibition of oxysterol-induced osteocalcin gene expression (osteocalcin mRNA; M2 cells pretreated with inhibitor, then 22R+20S oxysterols, 8 days): not

O=S(=O)(c1ccccc1)N(CC(F)(F)F)c1ccc(C(O)(C(F)(F)F)C(F)(F)F)cc1 [TO, TO-901317, reference compound]
inhibition of alkaline phosphatase activity ([1]; M2 cells, TO at 1-10 μM): dose-dependent inhibition
alkaline phosphatase activity ([1]; M2 cells): 3±0.5 activity units/mg protein
mineralization [2]: did not induce
osteocalcin gene expression (osteocalcin mRNA): did not induce

BMP14: bone morphogenic protein 14
alkaline phosphatase activity, synergy with oxysterols [1]: synergistically induced
mineralization, synergy with oxysterols [2]: synergistically induced
osteocalcin expression, synergy with osteogenic oxysterols (osteocalcin mRNA): synergistic induction

B1: BMP7: bone morphogenic protein 7 (protein, UniProt P18075 293-431, looked up)
Bone morphogenetic protein 7: STGSKQRSQNRSKTPKNQEALRMANVAENSSSDQRQACKKHELYVSFRDLGWQDWIIAPEGYAAYYCEGECAFPLNSYMNATNHAIVQTLVHFINPETVPKPCCAPTQLNAISVLYFDDSSNVILKKYRNMVVRACGCH
alkaline phosphatase activity, synergy with oxysterols [1]: synergistically induced
mineralization, synergy with oxysterols [2]: synergistically induced
osteocalcin expression, synergy with osteogenic oxysterols (osteocalcin mRNA): synergistic induction
